Experiment: Reduction potential E1/2 of the quinone nucleus of RIND compounds (Table I)
Type: physicochemical
Details: quinone nucleus with H in place of the releasing group; aqueous emulsion, DMF, nonionic surfactant, phosphate buffer pH 7; standard calomel electrode
Excerpt: Examples of such nuclei are presented below.
Preferably, the E1/2 is from about +100 mV to about +400 mV as measured in water, or from about -650 to about -300 mV as measured in acetonitrile. […] Further details of measuring the E1/2 are described below prior to Table I. The desired E1/2 is achieved by appropriate electron withdrawing groups on the CAR-nucleus, or by a strained fused ring attached to the nucleus or by a combination of both.
Representative RIND compounds are listed in Table I below in reference to the following structure: [drawing 3] The E1/2 values in Table I were determined for the quinone nucleus of this structure having a hydrogen atom in place of [drawing 4] The E1/2 values (where available) were measured in an aqueous emulsion of the quinone dissolved in N,N-dimethylformamide, a nonionic surfactant (for example, TRITON X-100) and sodium phosphate buffer (pH 7). A standard calomel electrode was used as a standard. Some E1/2 values (denoted by *) were measured in acetonitrile using a saturated calomel electrode as a standard. E1/2 values not available are denoted by "NA".
In the case of `CC(C1=C(CN(C)C(=O)Oc2ccc(N=Nc3ccc([N+](=O)[O-])cc3S(C)(=O)=O)c3c(NS(=O)(=O)c4cccc(S(N)(=O)=O)c4)cccc23)C(=O)C(C(C)c2ccc([N+](=O)[O-])cc2)=C(CN(C)C(=O)Oc2ccc(N=Nc3ccc([N+](=O)[O-])cc3S(C)(=O)=O)c3c(NS(=O)(=O)c4cccc(S(N)(=O)=O)c4)cccc23)C1=O)c1ccc([N+](=O)[O-])cc1` (stereo not drawn) [II], the E1/2 is reported as “+236 mV”. For `CN(CC1=C(c2ccc(C#N)cc2)C(=O)C2=C(CCCC2)C1=O)C(=O)Oc1ccc(N=Nc2ccc([N+](=O)[O-])cc2S(C)(=O)=O)c2c(NS(=O)(=O)c3cccc(S(N)(=O)=O)c3)cccc12` [IX], the E1/2 was “+220 mV”. With `CN(CC1=C(c2ccc(C(=O)O)cc2)C(=O)C2=C(CCCC2)C1=O)C(=O)Oc1ccc2c3c(cccc13)C(=O)C=C2` [RIND Compound XXXV] the E1/2 was “+220 mV”. For `CC(C)NS(=O)(=O)c1ccc(C2=C(CN(C)C(=O)Oc3ccc(N=Nc4ccc([N+](=O)[O-])cc4S(C)(=O)=O)c4c(NS(=O)(=O)c5cccc(S(N)(=O)=O)c5)cccc34)C(=O)C3=C(CCCC3)C2=O)cc1` [VIII], the E1/2 was “+212 mV”. For `CN(CC1=C(c2ccc([N+](=O)[O-])cc2)C(=O)C2=C(CCCC2)C1=O)C(=O)Oc1ccc(N=Nc2ccc([N+](=O)[O-])cc2S(C)(=O)=O)c2c(NS(=O)(=O)c3cccc(S(N)(=O)=O)c3)cccc12` [VII], the E1/2 was “+236 mV”. With `CN(CC1=C(c2ccccc2)C(=O)C2=C(CCCC2)C1=O)C(=O)Oc1ccc(N=Nc2ccc([N+](=O)[O-])cc2S(C)(=O)=O)c2c(NS(=O)(=O)c3cccc(S(N)(=O)=O)c3)cccc12` [VI] the E1/2 was “+180 mV”. With `CN(CC1=C(c2cccc([N+](=O)[O-])c2)C(=O)C2=C(CCCC2)C1=O)C(=O)Oc1ccc(N=Nc2ccc([N+](=O)[O-])cc2S(C)(=O)=O)c2c(NS(=O)(=O)c3cccc(S(N)(=O)=O)c3)cccc12` [V] the E1/2 was “+214 mV”. For `CC(=O)c1ccc(C2=C(CN(C)C(=O)Oc3ccc(N=Nc4ccc([N+](=O)[O-])cc4S(C)(=O)=O)c4c(NS(=O)(=O)c5cccc(S(N)(=O)=O)c5)cccc34)C(=O)C3=C(CCCC3)C2=O)cc1` [XIII], the E1/2 was “+212 mV”. In the case of `CCCCCCCCCCC(=O)c1ccc(C2=C(CN(C)C(=O)Oc3ccc(N=Nc4ccc([N+](=O)[O-])cc4S(C)(=O)=O)c4c(NS(=O)(=O)c5cccc(S(N)(=O)=O)c5)cccc34)C(=O)C3=C(CCCC3)C2=O)cc1` [XII], the E1/2 is reported as “+206 mV”. For `CN(CC1=C(c2ccc(Br)cc2)C(=O)C2=C(CCCC2)C1=O)C(=O)Oc1ccc(N=Nc2ccc([N+](=O)[O-])cc2S(C)(=O)=O)c2c(NS(=O)(=O)c3cccc(S(N)(=O)=O)c3)cccc12` [XIV], the E1/2 was “+192 mV”. With `CN(CC1=C(c2ccccc2)C(=O)C2=C(C1=O)C1C=CC2C1)C(=O)Oc1ccc(N=Nc2ccc([N+](=O)[O-])cc2S(C)(=O)=O)c2c(NS(=O)(=O)c3cccc(S(N)(=O)=O)c3)cccc12` (stereo not drawn) [XIX] the E1/2 was “+242 mV”. With `CN(CC1=C(c2cc([N+](=O)[O-])cc([N+](=O)[O-])c2)C(=O)C2=C(CCCC2)C1=O)C(=O)Oc1ccc(N=Nc2ccc([N+](=O)[O-])cc2S(C)(=O)=O)c2c(NS(=O)(=O)c3cccc(S(N)(=O)=O)c3)cccc12` [XI] the E1/2 was “+186 mV”. For `CN(CC1=C(c2ccc(C#N)cc2)C(=O)C2=C(CC=CC2)C1=O)C(=O)Oc1ccc(N=Nc2ccc([N+](=O)[O-])cc2S(C)(=O)=O)c2c(NS(=O)(=O)c3cccc(S(N)(=O)=O)c3)cccc12` [XVII], the E1/2 was “+240 mV”. For `CCCCCCCCCCCCN(CC1=C(c2ccc(C#N)cc2)C(=O)C2=C(CCCC2)C1=O)C(=O)Oc1ccc(N=Nc2ccc([N+](=O)[O-])cc2S(C)(=O)=O)c2c(NS(=O)(=O)c3cccc(S(N)(=O)=O)c3)cccc12` [XVI], the E1/2 was “+220 mV”. In the case of `CN(CC1=CC(=O)C2=C(CCCC2)C1=O)C(=O)Oc1ccc(N=Nc2ccc([N+](=O)[O-])cc2S(C)(=O)=O)c2c(NS(=O)(=O)c3cccc(S(N)(=O)=O)c3)cccc12` [XV], the E1/2 is reported as “+213 mV”. With `Cc1cc(=O)oc2cc(OC(=O)N(C)CC3=C(c4cccc([N+](=O)[O-])c4)C(=O)C4=C(CCCC4)C3=O)ccc12` [XXIII] the E1/2 was “+214 mV”. With `CN(CC1=C(c2cc(Cl)ccc2Cl)C(=O)C2=C(CCC2)C1=O)C(=O)Oc1ccc(N=Nc2ccc([N+](=O)[O-])cc2S(C)(=O)=O)c2c(NS(=O)(=O)c3cccc(S(N)(=O)=O)c3)cccc12` [XXIV] the E1/2 was “+236 mV”. With `CN(CC1=C(c2ccc(C#N)cc2)C(=O)C2=C(CCCC2)C1=O)C(=O)Oc1ccc2c3c(cccc13)C(=O)C=C2` [XXIX] the E1/2 was “+220 mV”. In the case of `CC1CCC(C)C2=C1C(=O)C(CN(C)C(=O)Oc1ccc(N=Nc3ccc([N+](=O)[O-])cc3S(C)(=O)=O)c3c(NS(=O)(=O)c4cccc(S(N)(=O)=O)c4)cccc13)=C(c1ccccc1)C2=O` (stereo not drawn) [XXVII], the E1/2 is reported as “+122 mV”. In the case of `CCCCCCCCCCCCC1CC2=C(C1)C(=O)C(c1ccccc1)=C(CN(C)C(=O)Oc1ccc(N=Nc3ccc([N+](=O)[O-])cc3S(C)(=O)=O)c3c(NS(=O)(=O)c4cccc(S(N)(=O)=O)c4)cccc13)C2=O` (stereo not drawn) [XXV], the E1/2 is reported as “+222 mV”. With `CN(CC1=C(c2ccc([N+](=O)[O-])cc2)C(=O)C2=C(CCCC2)C1=O)C(=O)Oc1ccc2c3c(cccc13)C(=O)C=C2` [XXXIII] the E1/2 was “+236 mV”. With `CN(CC1=C(c2cccc([N+](=O)[O-])c2)C(=O)C2=C(CCCC2)C1=O)C(=O)Oc1ccc2c3c(cccc13)C(=O)C=C2` [XXXII] the E1/2 was “+214 mV”. For `CN(CC1=C(c2cc(Cl)ccc2Cl)C(=O)C2=C(CCC2)C1=O)C(=O)Oc1ccc2c3c(cccc13)C(=O)C=C2` [XXXI], the E1/2 was “+236 mV”. In the case of `CC1=C(C)C(=O)C(c2ccccc2)=C(CN(C)C(=O)Oc2ccc(N=Nc3ccc([N+](=O)[O-])cc3S(C)(=O)=O)c3c(NS(=O)(=O)c4cccc(S(N)(=O)=O)c4)cccc23)C1=O` [XXXVI], the E1/2 is reported as “+144 mV”. For `CN(CC1=C(c2ccccc2)C(=O)C2=C(CCC2)C1=O)C(=O)Oc1ccc2c3c(cccc13)C(=O)C=C2` [XXX], the E1/2 was “+222 mV”. With `CN(CC1=C(c2ccccc2)C(=O)C2=C(CCC2)C1=O)C(=O)Oc1ccc(N=Nc2ccc([N+](=O)[O-])cc2S(C)(=O)=O)c2c(NS(=O)(=O)c3cccc(S(N)(=O)=O)c3)cccc12` [XX] the E1/2 was “+222 mV”.

Same assay, conditions: quinone nucleus with H in place of the releasing group; denoted *: measured in acetonitrile, saturated calomel electrode
`CN(CC1=C(c2ccccc2)C(=O)C(CN(C)C(=O)Oc2ccc(N=Nc3ccc([N+](=O)[O-])cc3S(C)(=O)=O)c3c(NS(=O)(=O)c4cccc(S(N)(=O)=O)c4)cccc23)=C(c2ccccc2)C1=O)C(=O)Oc1ccc(N=Nc2ccc([N+](=O)[O-])cc2S(C)(=O)=O)c2c(NS(=O)(=O)c3cccc(S(N)(=O)=O)c3)cccc12` [IV] showed an E1/2 of -460 mV. `CCCCCCCCCCNS(=O)(=O)c1ccc(C(C)C2=C(CN(C)C(=O)Oc3ccc(N=Nc4ccc([N+](=O)[O-])cc4S(C)(=O)=O)c4c(NS(=O)(=O)c5cccc(S(N)(=O)=O)c5)cccc34)C(=O)C(C(C)c3ccc(S(=O)(=O)NCCCCCCCCCC)cc3)=C(CN(C)C(=O)Oc3ccc(N=Nc4ccc([N+](=O)[O-])cc4S(C)(=O)=O)c4c(NS(=O)(=O)c5cccc(S(N)(=O)=O)c5)cccc34)C2=O)cc1` (stereo not drawn) [I] showed an E1/2 of -528 mV. `CCCCCCCCCCNS(=O)(=O)c1ccc(C(C)C2=C(CN(C)C(=O)Oc3ccc4c(C)cc(=O)oc4c3)C(=O)C(C(C)c3ccc(S(=O)(=O)NCCCCCCCCCC)cc3)=C(CN(C)C(=O)Oc3ccc4c(C)cc(=O)oc4c3)C2=O)cc1` (stereo not drawn) [XXII] showed an E1/2 of -528 mV. `CCCCCCCCCCNS(=O)(=O)c1ccc(C(C)C2=C(CN(C)C(=O)Oc3ccc(N=Nc4cccc(S(N)(=O)=O)c4)c4c(NS(C)(=O)=O)cccc34)C(=O)C(C(C)c3ccc(S(=O)(=O)NCCCCCCCCCC)cc3)=C(CN(C)C(=O)Oc3ccc(N=Nc4cccc(S(N)(=O)=O)c4)c4c(NS(C)(=O)=O)cccc34)C2=O)cc1` (stereo not drawn) [XXI] gave an E1/2 of -528 mV.
